Experimental data: ChEMBL document CHEMBL3046685, “Otebo bean (Phaseolus vulgaris) sensitivity to pre-emergence herbicides” (Crop Prot, 2006)

Tests used:
Phaseolus vulgaris [1] = assay: Phytotoxicity in Phaseolus vulgaris (otebo bean) assessed as plant height at 3200 g ai/ha applied as spray during pre-emergence treatment for 1 to 2 days measured 28 days post emergence (reference value: 29 cm); assay type: organism-based; settings: in vivo, other
Phaseolus vulgaris [2] = assay: Phytotoxicity in Phaseolus vulgaris (otebo bean) assessed as plant height at 1600 g ai/ha applied as spray during pre-emergence treatment for 1 to 2 days measured 28 days post emergence (reference value: 29 cm); assay type: organism-based; settings: in vivo, other
Phaseolus vulgaris [3] = assay: Phytotoxicity in Phaseolus vulgaris (otebo bean) assessed as shoot dry weight at 3200 g ai/ha applied as spray during pre-emergence treatment for 1 to 2 days measured 42 days post emergence (reference value: 164 g); assay type: organism-based; settings: in vivo, other
Phaseolus vulgaris [4] = assay: Increase in Phaseolus vulgaris (otebo bean) yield at 3200 g ai/ha applied as spray during pre-emergence treatment for 1 to 2 days (reference value: 3.8 t/ha); assay type: functional
Phaseolus vulgaris [5] = assay: Increase in Phaseolus vulgaris (otebo bean) yield at 1600 g ai/ha applied as spray during pre-emergence treatment for 1 to 2 days (reference value: 3.8 t/ha); assay type: functional
Phaseolus vulgaris [6] = assay: Phytotoxicity in Phaseolus vulgaris (otebo bean) assessed as change in moisture content at 1600 to 3200 g ai/ha applied as spray during preemergence treatment for 1 to 2 days; assay type: organism-based; settings: in vivo, other
Phaseolus vulgaris [7] = assay: Phytotoxicity in Phaseolus vulgaris (otebo bean) assessed as shoot dry weight at 1600 g ai/ha applied as spray during pre-emergence treatment for 1 to 2 days measured 42 days post emergence (reference value: 164 g); assay type: organism-based; settings: in vivo, other
Phaseolus vulgaris [8] = assay: Phytotoxicity in Phaseolus vulgaris (otebo bean) assessed as visual injury at 3200 g ai/ha applied as spray during pre-emergence treatment for 1 to 2 days measured 28 days post emergence relative to untreated control; assay type: organism-based; settings: in vivo, other
Phaseolus vulgaris [9] = assay: Phytotoxicity in Phaseolus vulgaris (otebo bean) assessed as visual injury at 1600 g ai/ha applied as spray during pre-emergence treatment for 1 to 2 days measured 28 days post emergence relative to untreated control; assay type: organism-based; settings: in vivo, other
Phaseolus vulgaris [10] = assay: Phytotoxicity in Phaseolus vulgaris (otebo bean) assessed as visual injury at 3200 g ai/ha applied as spray during pre-emergence treatment for 1 to 2 days measured 14 days post emergence relative to untreated control; assay type: organism-based; settings: in vivo, other
Phaseolus vulgaris [11] = assay: Phytotoxicity in Phaseolus vulgaris (otebo bean) assessed as visual injury at 1600 g ai/ha applied as spray during pre-emergence treatment for 1 to 2 days measured 14 days post emergence relative to untreated control; assay type: organism-based; settings: in vivo, other
Phaseolus vulgaris [12] = assay: Phytotoxicity in Phaseolus vulgaris (otebo bean) assessed as visual injury at 3200 g ai/ha applied as spray during pre-emergence treatment for 1 to 2 days measured 7 days post emergence relative to untreated control; assay type: organism-based; settings: in vivo, other
Phaseolus vulgaris [13] = assay: Phytotoxicity in Phaseolus vulgaris (otebo bean) assessed as visual injury at 1600 g ai/ha applied as spray during pre-emergence treatment for 1 to 2 days measured 7 days post emergence relative to untreated control; assay type: organism-based; settings: in vivo, other
Phaseolus vulgaris [14] = assay: Phytotoxicity in Phaseolus vulgaris (otebo bean) assessed as plant height at 1250 g ai/ha applied as spray during pre-emergence treatment for 1 to 2 days measured 28 days post emergence (reference value: 29 cm); assay type: organism-based; settings: in vivo, other
Vigna angularis [15] = assay: Phytotoxicity in Vigna angularis (adzuki bean) assessed as reduction in shoot dry weight at 2500 g ai/ha applied prior to planting relative to control; assay type: organism-based; parameters: scale not given: the % may be the effect or the level left; settings: in vivo, other
Phaseolus vulgaris [16] = assay: Increase in Phaseolus vulgaris (otebo bean) yield at 2500 g ai/ha applied as spray during pre-emergence treatment for 1 to 2 days (reference value: 3.8 t/ha); assay type: functional
Phaseolus vulgaris [17] = assay: Increase in Phaseolus vulgaris (otebo bean) yield at 1250 g ai/ha applied as spray during pre-emergence treatment for 1 to 2 days (reference value: 3.8 t/ha); assay type: functional
Vigna angularis [18] = assay: Phytotoxicity in Vigna angularis (adzuki bean) assessed as visual injury at 2500 g ai/ha applied prior to planting relative to control; assay type: organism-based; settings: in vivo, other
Vigna angularis [19] = assay: Phytotoxicity in Vigna angularis (adzuki bean) assessed as reduction in crop yield at 2500 g ai/ha applied prior to planting relative to control; assay type: organism-based; settings: in vivo, other
Phaseolus vulgaris [20] = assay: Phytotoxicity in Phaseolus vulgaris (otebo bean) assessed as change in moisture content at 1250 to 2500 g ai/ha applied as spray during preemergence treatment for 1 to 2 days; assay type: organism-based; settings: in vivo, other
Phaseolus vulgaris [21] = assay: Phytotoxicity in Phaseolus vulgaris (otebo bean) assessed as visual injury at 1250 g ai/ha applied as spray during pre-emergence treatment for 1 to 2 days measured 7 days post emergence relative to untreated control; assay type: organism-based; settings: in vivo, other
Phaseolus vulgaris [22] = assay: Phytotoxicity in Phaseolus vulgaris (otebo bean) assessed as shoot dry weight at 2500 g ai/ha applied as spray during pre-emergence treatment for 1 to 2 days measured 42 days post emergence (reference value: 164 g); assay type: organism-based; settings: in vivo, other
Phaseolus vulgaris [23] = assay: Phytotoxicity in Phaseolus vulgaris (otebo bean) assessed as shoot dry weight at 1250 g ai/ha applied as spray during pre-emergence treatment for 1 to 2 days measured 42 days post emergence (reference value: 164 g); assay type: organism-based; settings: in vivo, other
Phaseolus vulgaris [24] = assay: Phytotoxicity in Phaseolus vulgaris (otebo bean) assessed as plant height at 2500 g ai/ha applied as spray during pre-emergence treatment for 1 to 2 days measured 28 days post emergence (reference value: 29 cm); assay type: organism-based; settings: in vivo, other
Phaseolus vulgaris [25] = assay: Phytotoxicity in Phaseolus vulgaris (otebo bean) assessed as visual injury at 2500 g ai/ha applied as spray during pre-emergence treatment for 1 to 2 days measured 28 days post emergence relative to untreated control; assay type: organism-based; settings: in vivo, other
Phaseolus vulgaris [26] = assay: Phytotoxicity in Phaseolus vulgaris (otebo bean) assessed as visual injury at 1250 g ai/ha applied as spray during pre-emergence treatment for 1 to 2 days measured 28 days post emergence relative to untreated control; assay type: organism-based; settings: in vivo, other
Phaseolus vulgaris [27] = assay: Phytotoxicity in Phaseolus vulgaris (otebo bean) assessed as visual injury at 2500 g ai/ha applied as spray during pre-emergence treatment for 1 to 2 days measured 14 days post emergence relative to untreated control; assay type: organism-based; settings: in vivo, other
Phaseolus vulgaris [28] = assay: Phytotoxicity in Phaseolus vulgaris (otebo bean) assessed as visual injury at 1250 g ai/ha applied as spray during pre-emergence treatment for 1 to 2 days measured 14 days post emergence relative to untreated control; assay type: organism-based; settings: in vivo, other
Phaseolus vulgaris [29] = assay: Phytotoxicity in Phaseolus vulgaris (otebo bean) assessed as visual injury at 2500 g ai/ha applied as spray during pre-emergence treatment for 1 to 2 days measured 7 days post emergence relative to untreated control; assay type: organism-based; settings: in vivo, other

Compound: CCc1cccc(C)c1N(C(=O)CCl)[C@@H](C)COC [S-METOLACHLOR]
- Activity (Phaseolus vulgaris [1]): 29 cm
- Activity (Phaseolus vulgaris [2]): 30 cm
- Activity (Phaseolus vulgaris [3]): 164 g
- Crop_yield (Phaseolus vulgaris [4]): 4.6 tons/ha
- Crop_yield (Phaseolus vulgaris [5]): 4.1 tons/ha
- Activity (Phaseolus vulgaris [6]): Non-toxic
- Activity (Phaseolus vulgaris [7]): 175 g
- Activity (Phaseolus vulgaris [8]): 0%
- Activity (Phaseolus vulgaris [9]): 0%
- Activity (Phaseolus vulgaris [10]): 2%
- Activity (Phaseolus vulgaris [11]): 1%
- Activity (Phaseolus vulgaris [12]): 4%
- Activity (Phaseolus vulgaris [13]): 2%

Compound: COCC(C)N(C(=O)CCl)c1c(C)csc1C (centres undefined) [DIMETHENAMID]
- Activity (Phaseolus vulgaris [14]): 30 cm
- Activity (Vigna angularis [15]): 53%
- Crop_yield (Phaseolus vulgaris [16]): 4.5 tons/ha
- Crop_yield (Phaseolus vulgaris [17]): 4.5 tons/ha
- Activity (Vigna angularis [18]): 37%
- Crop_yield (Vigna angularis [19]): 38%
- Activity (Phaseolus vulgaris [20]): Non-toxic
- Activity (Phaseolus vulgaris [21]): 1%
- Activity (Phaseolus vulgaris [22]): 154 g
- Activity (Phaseolus vulgaris [23]): 167 g
- Activity (Phaseolus vulgaris [24]): 29 cm
- Activity (Phaseolus vulgaris [25]): 1%
- Activity (Phaseolus vulgaris [26]): 0%
- Activity (Phaseolus vulgaris [27]): 3%
- Activity (Phaseolus vulgaris [28]): 1%
- Activity (Phaseolus vulgaris [29]): 4%
